Where two headings read alike, the source gives them in different places.
Key:
GPR139 = target: T1, GPR139 (Homo sapiens, UniProt Q6DWJ6); assay: GPR139 Agonist titration / agonist counterscreen assay (calcium detection, HEK-GPR139 cells); format: cell-based; design: expressed in transfected cells; host or cells: HEK Aequorin cells, Maxcyte transient transfection; conditions: GPR139 Agonist Activity; for EC50: read-out: EC50; for Averaged Max % Response (±St. Dev.): activity relative to known control
T1 sequence (Q6DWJ6 1-353): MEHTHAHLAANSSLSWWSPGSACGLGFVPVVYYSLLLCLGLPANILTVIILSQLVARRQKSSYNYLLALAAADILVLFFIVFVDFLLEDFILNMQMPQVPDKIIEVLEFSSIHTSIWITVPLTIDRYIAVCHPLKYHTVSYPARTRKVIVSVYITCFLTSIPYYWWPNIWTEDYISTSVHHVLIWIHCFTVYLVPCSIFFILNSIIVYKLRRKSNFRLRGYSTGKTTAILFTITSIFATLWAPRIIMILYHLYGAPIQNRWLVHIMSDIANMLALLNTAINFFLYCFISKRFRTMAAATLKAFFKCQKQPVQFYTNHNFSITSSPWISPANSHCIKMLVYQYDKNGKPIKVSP
Experimental: GPR activity was assessed using a calcium detection assay. […] Negative control samples were treated with DMSO. […] Intracellular calcium was measured using Calcium 5.

parental HEK cells = assay: HEK parental Agonist Counterscreen Assay (non-transfected cells); format: cell-based; conditions: for Averaged Max % Response (±St. Dev.): activity relative to known control
Description: The high control for the agonist counterscreen was Forskolin not acetylcholine.

[1] = Homo sapiens, HEK293, HEK Agonist Activity section of Table 4 (parental HEK counterscreen)
[2] = HEK Agonist Activity section of Table 4 (parental HEK counterscreen)
[3] = HEK Agonist Activity, parental non-transfected HEK cells
[4] = values printed in E-notation without unit
[5] = Homo sapiens, HEK293, HEK Agonist Activity, parental non-transfected HEK cells

| Efficiency Ligand (GPR139) | Hill Slope (GPR139) | Lipophilic Efficiency (logD) (GPR139) | Lipophilic Efficiency (logP) (GPR139) | EC50 (GPR139; HEK-GPR139 cells) [nM] | Averaged Max % Response (±St. Dev.) (GPR139) [%] | Lipophilic Efficiency (logD) (parental HEK cells; HEK Agonist Activity section) | Lipophilic Efficiency (logP) (parental HEK cells; HEK Agonist Activity section) | Lipophilic Efficiency (logD) (GPR139; based on logD) | Lipophilic Efficiency (logP) (GPR139; based on logP) | Efficiency Ligand (GPR139; ligand efficiency) | Lipophilic Efficiency (logD) (parental HEK cells; HEK Agonist Activity) | Lipophilic Efficiency (logP) (parental HEK cells; HEK Agonist Activity) | Hill Slope (GPR139; fitted dose-response curve) | EC50 (GPR139; [4]) [nM] | SMILES | Averaged Max % Response (±St. Dev.) (parental HEK cells; HEK Agonist Activity section) [%] | EC50 (parental HEK cells; [1]) [nM] | Averaged Max % Response (±St. Dev.) (parental HEK cells; HEK Agonist Activity) [%] | also measured |
| --- | --- | --- | --- | --- | --- | --- | --- | --- | --- | --- | --- | --- | --- | --- | --- | --- | --- | --- | --- |
| 0.37 | 0.98 | 4.18 | 4.18 | 418 | 100.90 ± 10.01 | 2.65 | 2.65 | – | – | – | – | – | – | – | COc1cc(OC)cc(C(=O)NNC(=O)CCc2ccccc2)c1 [SR-01000359572] | 6.12 ± 4.61 | > 14100 | – | – |
| 0.31 | 0.68 | 4.62 | 4.62 | 422 | 86.79 ± 17.90 | 3.09 | 3.09 | – | – | – | – | – | – | – | COc1ccc(CCN2CC3=C(C2=O)C(c2ccc(F)c(F)c2)NC(=O)N3)cc1 (stereo not drawn) [SR-01000335002] | 20.28 ± 3.20 | – | – | EC50 (parental HEK cells; [2]): > 14100 nM |
| 0.29 | 0.79 | 2.38 | 2.38 | 890 | 89.89 ± 26.17 | 1.18 | 1.18 | – | – | – | – | – | – | – | Cc1nn(CC(=O)NC2CCCc3ccccc32)c(=O)c2c1sc1ccccc12 (stereo not drawn) [SR-01000139982] | 9.26 ± 7.81 | > 14100 | – | – |
| 0.36 | 1.01 | 3.49 | 3.49 | 656 | 76.40 ± 3.97 | 2.16 | 2.16 | – | – | – | – | – | – | – | Cc1c(Cl)c([N+](=O)[O-])nn1CC(=O)NC(C)COc1ccccc1 (stereo not drawn) [SR-01000318171] | 6.88 ± 5.68 | > 14100 | – | – |
| 0.56 | 0.93 | 5.53 | 2.98 | 930 | 65.23 ± 8.63 | 4.35 | 1.80 | – | – | – | – | – | – | – | O=C(O)CC1CCCC1c1ccccc1 (stereo not drawn) [SR-01000320687] | 17.26 ± 6.30 | > 14100 | – | – |
| – | – | – | – | – | 120.13 ± 6.96 | – | – | 5.35 | 5.34 | 0.47 | 1.53 | 1.52 | – | – | COc1cccc(C(=O)NNC(=O)CCCOc2ccc(Cl)cc2Cl)c1 [SR-01000205482] | – | – | −5.45 ± 10.43 | EC50 (parental HEK cells; [3]): > 14100 nM |
| – | – | – | – | – | 97.57 ± 16.88 | 1.45 | 1.43 | 3.55 | 3.54 | 0.31 | – | – | 1.18 | – | CCN(CCCNC(=O)CN1CCC(Cc2ccccc2C)C1=O)c1cccc(C)c1 (stereo not drawn) [SR-01000150393] | 10.10 ± 9.60 | > 14100 | – | – |
| 0.41 | 2.51 | 3.22 | 3.22 | 1200 | 90.96 ± 29.33 | 2.16 | 2.16 | – | – | – | – | – | – | – | Cc1cc(=O)n2nc(NCc3ccccc3Cl)nc2[nH]1 [SR-01000153886] | −3.87 ± 9.73 | > 14100 | – | – |
| – | – | – | – | – | 105.87 ± 4.30 | – | – | 4.97 | 4.93 | 0.35 | 1.86 | 1.83 | 0.88 | 11.9 | O=C(Cn1nnc(-c2ccccc2)n1)NNC(=O)Cn1c(C(F)(F)F)nc2ccccc21 [SR-01000070891] | – | – | 8.31 ± 6.92 | EC50 (parental HEK cells; [5]): > 15200 nM |
| – | – | – | – | – | 118.40 ± 16.09 | – | – | 4.22 | 4.22 | 0.43 | 1.42 | 1.42 | 0.20 | 22.4 | CCc1cccc(NC(=O)Cn2ncc3c2-c2ccccc2OC3)c1 [SR-01000098944] | – | – | 16.33 ± 3.15 | EC50 (parental HEK cells; [3]): > 14100 nM |
| – | – | – | – | – | 111.46 ± 12.99 | – | – | 5.36 | 5.36 | 0.48 | 1.98 | 1.98 | 0.33 | 5.9 | COc1cccc(C(=O)NNC(=O)COc2ccc(C)cc2Br)c1 [SR-01000369718] | – | – | 7.35 ± 13.00 | EC50 (parental HEK cells; [5]): > 14100 nM |
| – | – | – | – | – | 90.68 ± 18.21 | – | – | 3.59 | 3.59 | 0.42 | 0.95 | 0.95 | 0.54 | 32.9 | CC(NC(=O)COC(=O)c1ccccc1C(F)(F)F)c1ccccc1 (stereo not drawn) [SR-01000037440] | – | – | 16.47 ± 8.15 | EC50 (parental HEK cells; [5]): > 14400 nM |
| – | – | – | – | – | 113.33 ± 7.65 | – | – | 6.57 | 6.57 | 0.50 | 2.46 | 2.46 | 0.44 | – | CC(=O)c1cccc(C(C)(C)CC(=O)CNC(=O)c2ccccc2)c1 [SR-01000031674] | – | – | 35.54 ± 2.15 | EC50 (parental HEK cells; [5]): > 15000 nM |
| – | – | – | – | – | 110.27 ± 5.24 | 0.41 | 0.41 | 2.48 | 2.48 | 0.29 | – | – | 0.46 | 122 | O=C(C1CC(Cc2cccc3ccccc23)=NO1)N1CCC(C(O)Cc2ccccc2)CC1 (stereo not drawn) [SR-01000185712] | 9.02 ± 5.86 | – | – | EC50 (parental HEK cells; [2]): > 14100 nM |
| – | – | – | – | – | 115.41 ± 10.16 | 1.42 | 1.29 | 3.51 | 3.38 | 0.28 | – | – | 0.89 | 110 | COc1ccc(CCNC(=O)c2ccnc(N3CCN(Cc4ccc5c(c4)OCO5)CC3)c2)cc1 [SR-01000654192] | 14.64 ± 17.11 | – | – | EC50 (parental HEK cells; [2]): > 13300 nM |
| – | – | – | – | – | 114.68 ± 22.09 | 1.22 | 1.21 | 3.62 | 3.61 | 0.32 | – | – | 0.44 | 56.1 | CC(CCc1ccccc1)NC(=O)c1ccc2c(c1)C(Cc1ccccc1)C(=O)C[S+]2[O-] (stereo not drawn) [SR-01000129880] | 0.02 ± 5.29 | > 14100 | – | – |
| 0.31 | 1.67 | 2.98 | 2.98 | 604 | 74.00 ± 9.00 | 1.61 | 1.61 | – | – | – | – | – | – | – | CCCN1C(=O)CCc2cc(NC(=O)NCCc3ccc(OC)cc3)ccc21 [SR-01000923206] | −32.47 ± 4.02 | – | – | EC50 (parental HEK cells; [2]): > 14100 nM |
| – | – | – | – | – | 105.92 ± 4.10 | 2.87 | 2.87 | 5.32 | 5.31 | 0.43 | – | – | 0.77 | 50.5 | Cc1cccc(NC(=O)Cn2ncc3c2-c2ccccc2OC3)n1 [SR-01000135038] | 13.01 ± 4.86 | > 14100 | – | – |
| – | – | – | – | – | 139.09 ± 25.80 | 1.13 | 1.13 | 3.02 | 3.02 | 0.36 | – | – | 0.40 | 181 | CC(C)c1ccc(NC(=O)Cn2ncc3c2-c2ccccc2OC3)cc1 [SR-01000098920] | 10.87 ± 9.19 | – | – | EC50 (parental HEK cells; [2]): > 14100 nM |

Reference: patent US20250099420A1, “SMALL MOLECULE MODULATORS OF GPR139 COMPLEX” (University of Florida Research Foundation, Incorporated, priority 2022, published 2025)
